This experiment relates to B16F10 parental and DTIC-resistant cells. The experiment in a line: In vitro cell growth in response to dacarbazine. It counts as cell-based, mouse. Particulars: high-dose DTIC treatment. An excerpt:
FIG. 31A-I. Activation of LXRβ Suppresses the In Vivo Growth of Melanoma Lines Resistant to Dacarbazine and Vemurafenib. (FIG. 31A) In vitro cell growth by 2.5×10^4 B16F10 parental cells and in vitro-derived B16F10 DTIC-resistant cells in response to varying doses of dacarbazine (DTIC) added to the cell media for 4 days. n=3. (FIG. 31B-FIG. 31D) Tumor growth by 5×10^4 DTIC-sensitive B16F10 parental cells (FIG. 31B) or 5×10^4 DTIC-resistant B16F10 cells (FIG. 31C) subcutaneously injected into C57BL/6-WT mice. Following tumor growth to 5-10 mm3 in volume, mice were treated with dacarbazine (50 mg/kg, i.p., daily) or a control vehicle and randomly assigned to regular chow or a chow supplemented with GW3965 (100 mg/kg). Final day tumor volume measurements are shown in (FIG. 31D). n=8-16 (FIG. 31B), 7-8 (FIG. 31C). (FIG. 31E-FIG. 31F) Tumor growth by DTIC-sensitive MeWo parental cells and in vivo-derived DTIC-resistant MeWo human melanoma cells in response to DTIC or GW3965 treatments. 5×10^5 cells were subcutaneously injected into NOD Scid gamma mice. After formation of tumors measuring 5-10 mm3 in volume, mice were blindedly assigned to a control treatment, a DTIC treatment (50 mg/kg, i.p., administered daily in 5-day cycles with 2-day off-treatment intervals), or a GW3965-supplemented diet treatment (100 mg/kg). Final day tumor measurements are show in (FIG. 31F). n=6-8. […]

The text below walks through data of patent US9399028B2, “Treatment of drug resistant cancer” (ROCKEFELLER UNIVERSITY (THE), priority 2012, dated 2016).

Take `CN(C)/N=N/c1[nH]cnc1C(N)=O` [dacarbazine]: the “increase in viability of DTIC-resistant cells compared to parental B16F10” value stood at 7 fold.
